# Earlier results as cited in patent publication US20070154533A1, “Method of increasing testosterone and related steriod concentrations in women” (priority 2005, published 2007).
# Like-named read-outs stand apart in the source and are kept apart here.
# Assays:
# [1] = circulating testosterone
# albumin = albumin (Homo sapiens, UniProt P02768); conditions: in women
# [2] = for Mean (±SD) serum free testosterone concentration: transdermal patch, 12 weeks, oophorectomized women on conjugated equine estrogens
# [3] = biological target: T1, sex hormone binding globulin (Homo sapiens, UniProt P04278); conditions: in women
# T1 sequence (P04278 30-402): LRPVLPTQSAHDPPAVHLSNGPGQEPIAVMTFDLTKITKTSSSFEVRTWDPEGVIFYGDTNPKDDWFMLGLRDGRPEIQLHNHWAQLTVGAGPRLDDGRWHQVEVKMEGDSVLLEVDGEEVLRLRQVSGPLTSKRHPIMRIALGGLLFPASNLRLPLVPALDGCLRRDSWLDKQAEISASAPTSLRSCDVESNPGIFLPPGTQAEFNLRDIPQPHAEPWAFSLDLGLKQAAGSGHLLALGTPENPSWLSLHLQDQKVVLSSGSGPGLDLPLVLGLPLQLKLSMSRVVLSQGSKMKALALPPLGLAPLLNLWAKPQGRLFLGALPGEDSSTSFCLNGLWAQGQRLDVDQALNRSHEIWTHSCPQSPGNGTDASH
# [4] = patch delivering 150 ug/day, HIV-infected women, over 12 weeks
# Sequence of albumin (P02768 25-609): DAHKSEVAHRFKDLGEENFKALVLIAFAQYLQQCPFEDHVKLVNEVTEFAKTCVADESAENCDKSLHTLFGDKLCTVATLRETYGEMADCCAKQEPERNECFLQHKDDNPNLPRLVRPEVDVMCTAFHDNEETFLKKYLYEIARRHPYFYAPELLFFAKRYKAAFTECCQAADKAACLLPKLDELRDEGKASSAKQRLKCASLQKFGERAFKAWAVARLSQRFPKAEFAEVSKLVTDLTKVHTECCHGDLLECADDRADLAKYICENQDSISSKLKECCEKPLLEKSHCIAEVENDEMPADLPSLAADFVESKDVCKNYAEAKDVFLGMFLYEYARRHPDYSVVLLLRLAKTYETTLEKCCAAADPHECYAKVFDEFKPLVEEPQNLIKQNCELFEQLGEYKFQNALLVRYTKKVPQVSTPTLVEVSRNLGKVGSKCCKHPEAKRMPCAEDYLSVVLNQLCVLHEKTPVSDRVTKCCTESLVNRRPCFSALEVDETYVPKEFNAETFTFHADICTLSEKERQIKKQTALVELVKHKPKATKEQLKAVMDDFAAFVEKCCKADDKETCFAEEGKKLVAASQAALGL
structure (smiles),measurement,setting,value
"C[C@]12CC[C@H]3[C@@H](CCC4=CC(=O)CC[C@@]43C)[C@@H]1CC[C@@H]2O [Testosterone, testosterone]",Bound to protein in the blood,[1],98%
same,Bound weakly to albumin,albumin,33%
same,Scores on the telephone-based diary,[2]; higher dose,did not increase significantly
same,"Psychological Well-Being Index positive-well-being, depressed-mood, and composite scores",[2]; higher dose vs placebo,improved at the higher dose
same,"Percentages of women who had sexual fantasies, masturbated, or engaged in sexual intercourse at least once a week","[2]; higher dose, vs base line",increased two to three times from base line
same,Brief Index of Sexual Functioning for Women scores,"[2]; higher testosterone dose (300 μg per day), P=0.03 vs placebo",further increases in scores for frequency of sexual activity and pleasure-orgasm
same,Mean (±SD) serum free testosterone concentration,[2]; 160 μg of testosterone per day,3.9 ± 2.4 pg/mL
same,Mean (±SD) serum free testosterone concentration,[2]; 300 μg of testosterone per day,4.9 ± 4.8 pg/mL
same,Binding to sex hormone binding globulin,[3],approximately 65%
same,Increase in body weight,[4],4%
